What all share (assay type): in vivo, Catharanthus roseus
Experiment [1] concerns vindoline pathway gene expression. The experiment in a line: Paclobutrazol treatment of etiolated seedlings: vindoline pathway gene expression by qPCR. The note with it: 1 μM PAC, dark-grown seedlings, 4 days, vs DMSO mock. The procedure: (§1) Because PAC might disrupt germination, seedlings were first germinated normally without any treatment by incubating them in the dark for 5 days at 27° C. The germinated seeds were then transferred to either media containing 1 μM PAC or media containing an equal volume of DMSO as a mock treatment. These seedlings were kept in the dark for 4 more days before being harvested for gene expression analysis.
Gene expression levels were monitored using quantitative real-time PCR (qRT-PCR) with primers listed in Table 1. mRNA was extracted from liquid nitrogen flash-frozen leaf tissue or seedlings stored at −80° C. While still frozen, tissue was crushed by shaking in a Mini-BeadBeater-16 (Biospec) for 15 seconds with ten 3 mm glass beads (Fisher). Afterwards, RNA was extracted with RNAzol-RT (Molecular Research Center) and the Direct-zol RNA Miniprep Plus Kit (Zymo Research) with on-column DNAse treatment to remove genomic DNA. RNA integrity was assessed using agarose gel electrophoresis, and concentration and purity were quantified with a NanoDrop (ND-1000 Spectrophotometer; ThermoScientific). cDNA was synthesized using either the SuperScript II First-Strand Synthesis System (Invitrogen) or the LunaScript RT SuperMix Kit (New England Biolabs) with up to 2.5 μg of RNA, according to manufacturer's instructions. cDNA was diluted 1:4, and 1 μL was used in a 10 μL reaction with SYBR Green ROX qPCR Master Mix (Qiagen or ABClonal) and 300 nM primers on the MX3000P qPCR instrument (Agilent) using the thermocycler protocol previously described with an extension time of 30 seconds. Ct values for each biological replicate were calculated as the average of two technical replicates. Transcript levels were normalized to the housekeeping gene, SAND [76], and fold changes relative to the negative control condition were calculated according to the […]. Amplification efficiency for each primer set was confirmed using Ct values over a range of cDNA dilutions and was 100%±10% for each gene monitored. Specificity of the primers were confirmed by gel electrophoresis and sequencing. SAND Ct values in no reverse-transcriptase controls were confirmed to be at least 5 Ct values above the respective experimental sample, indicating minimal genomic DNA contamination.
C. roseus var. Little Bright Eye seeds (NESeeds, 0.8 g) were sterilized by submersion in 4% Plant Preservative Mixture (PPM) for 18 hours in the dark. The PPM was then decanted, and the seeds were spread on full-strength Gamborg's media (3.1 g/L Gamborg's basal salts, 1× Gamborg's vitamins, and 6% micropropagation agar type 1, Phytotechnology Laboratory) inside a sterile Magenta™ Plant Culture Box (Sigma) for germination. Seeds were germinated in the dark at 27° C. for 5 days until the radicle of the seedling had just emerged. A 100 mM stock solution of paclobutrazol (PAC, PhytoTechnology Laboratories) was prepared with DMSO as the solvent, filter-sterilized, and stored at −20° C. until use. A final concentration of 1 μM PAC or an equivalent amount of DMSO (mock) was added to Gamborg's media after autoclaving. After germination, seedlings were sterilely transferred to a new Magenta™ Box containing Gamborg's media containing 1 μM PAC or DMSO. Seedlings were maintained in the dark at 27° C. for 4 days, and then were harvested by placing 3 whole seedlings in a 2 mL screw cap tube containing ten 3 mm glass beads for each biological replicate, flash-freezing in liquid nitrogen, and storing at −80° C. until ready for RNA extraction and qPCR analysis.

The subject of experiment [2] is CrLHCB2.2. The experiment in a line: Paclobutrazol treatment of etiolated seedlings: CrLHCB2.2 expression by qPCR (positive control). The note with it: 1 μM PAC, dark-grown seedlings, 4 days, vs DMSO mock; normalized to SAND. The procedure:
as §1
This is consistent with GA's positive role in growth and served as a good indicator that the PAC was having an effect on the seedlings. As a positive control, expression of CrLHCB2.2 was measured; CrLHCB2.2 is a homologue of the light harvesting complex subunit B 2.2, which was previously shown to be activated by PAC treatment of dark-grown seedlings in A. thaliana.
Gene expression levels were monitored using quantitative real-time PCR (qRT-PCR) with primers listed in Table 1. mRNA was extracted from liquid nitrogen flash-frozen leaf tissue or seedlings stored at −80° C. […] Ct values for each biological replicate were calculated as the average of two technical replicates. Transcript levels were normalized to the housekeeping gene, SAND [76], and fold changes relative to the negative control condition were calculated according to the […]. Amplification efficiency for each primer set was confirmed using Ct values over a range of cDNA dilutions and was 100%±10% for each gene monitored. […]

For experiment [3], the system named is CrDELLA1 and CrDELLA2 transcript levels. Description: Paclobutrazol treatment of etiolated seedlings: DELLA transcript levels by qPCR. The note with it: 1 μM PAC, dark-grown seedlings, 4 days, vs DMSO mock. The procedure: as §1
Gene expression levels were monitored using quantitative real-time PCR (qRT-PCR) with primers listed in Table 1. mRNA was extracted from liquid nitrogen flash-frozen leaf tissue or seedlings stored at −80° C. […] RNA integrity was assessed using agarose gel electrophoresis, and concentration and purity were quantified with a NanoDrop (ND-1000 Spectrophotometer; ThermoScientific). cDNA was synthesized using either the SuperScript II First-Strand Synthesis System (Invitrogen) or the LunaScript RT SuperMix Kit (New England Biolabs) with up to 2.5 μg of RNA, according to manufacturer's instructions. cDNA was diluted 1:4, and 1 μL was used in a 10 μL reaction with SYBR Green ROX qPCR Master Mix (Qiagen or ABClonal) and 300 nM primers on the MX3000P qPCR instrument (Agilent) using the thermocycler protocol previously described with an extension time of 30 seconds. Ct values for each biological replicate were calculated as the average of two technical replicates. […]

The subject of experiment [4] is C. roseus seedlings. The experiment in a line: Paclobutrazol treatment of etiolated seedlings: seedling height. The note with it: 1 μM PAC, dark-grown seedlings, 4 days, vs DMSO mock. The procedure: as §1
Seedlings treated with PAC were photographed and lengths were measured with ImageJ. Statistical significance for all phenotype measurements was analyzed with a two-tailed unpaired T-test.
C. roseus var. Little Bright Eye seeds (NESeeds, 0.8 g) were sterilized by submersion in 4% Plant Preservative Mixture (PPM) for 18 hours in the dark. The PPM was then decanted, and the seeds were spread on full-strength Gamborg's media (3.1 g/L Gamborg's basal salts, 1× Gamborg's vitamins, and 6% micropropagation agar type 1, Phytotechnology Laboratory) inside a sterile Magenta™ Plant Culture Box (Sigma) for germination. […] Seedlings were maintained in the dark at 27° C. for 4 days, and then were harvested by placing 3 whole seedlings in a 2 mL screw cap tube containing ten 3 mm glass beads for each biological replicate, flash-freezing in liquid nitrogen, and storing at −80° C. until ready for RNA extraction and qPCR analysis.

The structures appear in SMILES notation.

Consider `CC(C)(C)[C@@H](O)[C@@H](Cc1ccc(Cl)cc1)n1cncn1` (racemic) [PAC, paclobutrazol], for which, in experiment [1], the D4H gene expression entry was “significant decrease” and the T16H2 gene expression entry is “no effect”. Also, in experiment [1] (not statistically significant), the “activation of DAT gene expression” value is reported as “approximately 50%”, the “activation of NMT gene expression” value is “approximately 50%”, the “activation of T3O gene expression” value was “approximately 50%” and the “activation of T3R gene expression” value was “approximately 50%”. In addition, the “activation of 16OMT gene expression” value in experiment [1] (statistically significant) is “approximately 50%”. In experiment [2], the “activation of CrLHCB2.2 expression” value is over 2 fold. For the same compound, in experiment [3], the CrDELLA1 expression result is “significantly decreased expression” and the CrDELLA2 expression result was “significantly decreased expression”. For the same compound, the seedling height result in experiment [4] is recorded as “significant decrease”.

These data come from patent US20250304985A1, “Genetically Engineered Plants for Increased Production of Vindoline” (Northeastern University, priority 2022, published 2025).
